# From patent publication US20110040086A1, “Novel Beta-Lactam Antibiotics, Methods for Their Production, and Their Use” (DRITTE PATENTPORTFOLIO BETEILIGUNGSGESELLSCHAFT MB, priority 2007, published 2011)
# Columns and labels:
# [1] = test system: Bacillus megaterium SBUG 1152; test: agar diffusion test (Test System 1, antimicrobial effect); format: cell-based
# Method: (§1) Test System 1 (Antimicrobial Effect)
# (§2) The test germs Escherichia coli SBUG 1135 and Bacillus megaterium SBUG 1152 are drawn overnight (17 hours at 37° C.) in 5 ml nutrient medium II. The incubation is performed in a shaking incubator (INFORS AG CH 4103, Bottmingen, Switzerland) at a shaking frequency of 180 rpm.
# (§3) After 17 h incubation time, Escherichia coli has reached a cell density of ca. 2.4×10^10 cells/ml and Bacillus megaterium a cell density of ca. 2.1×10^8 cells/ml.
# (§4) The seeding of bacteria in agar is selected so that, dense, but not confluent individual colonies develop after the incubation.
# Bacillus megaterium: 0.1 ml of non-diluted overnight culture (ÜN) in 10 ml nutrient agar corresponds to a cell count of 10^6.
# (§5) The inoculated nutrient agar is set in sterile Petri dishes and left standing for a few minutes for drying.
# (§6) The test substances are deposited in stepped quantities (10 μg, 50 μg, 100 μg) onto active ingredient carriers (sensi-discs). For this purpose, the test substances are dissolved in methanol or A. dest. according to their solubility. Each inoculated plate is fitted with 3 test sheets.
# (§7) After a 20-hour incubation time at 37° C., the zones of inhibition around the individual test sheets could be measured. The diameter of the zone of inhibition is specified in mm.
# [2] = test system: B. subtilis AWD 166; test: agar diffusion test (antimicrobial effect); format: cell-based, Bacillus subtilis
# Method: as §4, §5, §6, §7
# [3] = test system: Escherichia coli SBUG 1135; test: agar diffusion test (Test System 1, antimicrobial effect); format: cell-based; set-up: key: r = resistant (no detectable zone of inhibition)
# Method: as §1, §2, §3, §4
# Escherichia coli: the ÜN is diluted 1:100 with physiological saline solution, of which 0.1 ml is converted into 10 ml nutrient agar. That corresponds to a cell count of 10^6.
# as §5, §6, §7
# [4] = test system: Enterococcus faecalis 769; test: agar diffusion test (Test System II, multi-resistant germs); format: cell-based; set-up: key: r = resistant (no detectable zone of inhibition)
# Method: as §6
# (§8) Test System II (Effect Against Multi-Resistant Germs)
# (§9) For this purpose, bacteria is cultivated on Müller-Hinton-Agar II plates.
# (§10) With 1-1.5 ml physiological saline solution, a bacteria suspension of McFarland 0.5 (corresponds to a bacteria density of 150×10^6 germs) is produced. Then, with a sterile glass rod, a small drop of bacteria suspension is placed on the Müller-Hinton-Agar plate and coated in three layers (vertical, horizontal, and transverse). Thereafter, the sensi-discs with the novel semi-synthetic test substances are placed on top. The fitted plates are incubated for 18-20 hours at 37° C. After incubation, the diameters of the zones of inhibition are read as a measure for the antimicrobial activity of the novel semi-synthetic test substances.
# [5] = test system: Staphylococcus aureus 315; test: as above; format: cell-based; set-up: key: r = resistant (no detectable zone of inhibition)
# Method: as §6, §8, §9, §10
# [6] = test system: E. faecalis 945; test: as above; format: cell-based, Enterococcus faecalis; set-up: key: r = resistant (no detectable zone of inhibition)
# Method: as §6, §8, §9, §10
# [7] = test system: S. aureus 33490; test: as above; format: cell-based, Staphylococcus aureus; set-up: key: r = resistant (no detectable zone of inhibition)
# Method: as §6, §8, §9, §10
# [8] = test system: S. aureus 34289; test: as above; format: cell-based, Staphylococcus aureus; set-up: key: r = resistant (no detectable zone of inhibition)
# Method: as §6, §8, §9, §10
# [9] = test system: S. aureus 36881; test: as above; format: cell-based, Staphylococcus aureus; set-up: key: r = resistant (no detectable zone of inhibition)
# Method: as §6, §8, §9, §10
# [10] = test system: S. aureus 39105; test: as above; format: cell-based, Staphylococcus aureus; set-up: key: r = resistant (no detectable zone of inhibition)
# Method: as §6, §8, §9, §10
# [11] = test system: S. aureus 520; test: as above; format: cell-based, Staphylococcus aureus; set-up: key: r = resistant (no detectable zone of inhibition)
# Method: as §6, §8, §9, §10
# [12] = test system: S. aureus 526; test: as above; format: cell-based, Staphylococcus aureus; set-up: key: r = resistant (no detectable zone of inhibition)
# Method: as §6, §8, §9, §10
# [13] = test system: S. aureus North Germany strain; test: as above; format: cell-based, Staphylococcus aureus; set-up: key: r = resistant (no detectable zone of inhibition)
# Method: as §6, §8, §9, §10
# [14] = test system: S. aureus 38418; test: as above; format: cell-based, Staphylococcus aureus
# Method: as §6, §8, §9, §10
# [15] = test system: S. aureus ATCC 6538; test: as above; format: cell-based, Staphylococcus aureus
# Method: as §6, §8, §9, §10
# [16] = test system: S. epidermidis 1068; test: as above; format: cell-based, Staphylococcus epidermidis; set-up: key: r = resistant (no detectable zone of inhibition)
# Method: as §6, §8, §9, §10
# [17] = test system: S. epidermidis 1071; test: as above; format: cell-based, Staphylococcus epidermidis; set-up: key: r = resistant (no detectable zone of inhibition)
# Method: as §6, §8, §9, §10
# [18] = test system: S. epidermidis 563; test: as above; format: cell-based, Staphylococcus epidermidis; set-up: key: r = resistant (no detectable zone of inhibition)
# Method: as §6, §8, §9, §10
# [19] = test system: S. epidermidis 847; test: as above; format: cell-based, Staphylococcus epidermidis; set-up: key: r = resistant (no detectable zone of inhibition)
# Method: as §6, §8, §9, §10
# [20] = test system: S. epidermidis 125; test: as above; format: cell-based, Staphylococcus epidermidis
# Method: as §6, §8, §9, §10
structure (smiles),measurement,setting,value
"COC(=O)C1=C(NC(C(=O)NC2C(=O)N3C(C(=O)O)=C(C)CSC23)c2ccccc2)C(=O)C=CC1=O (stereo not drawn) [1g, 7-[2-(2-methoxycarbonyl-3,6-dioxocyclohexa-1,4-dienylamino)-2-phenyl-acetylamino]-desacetoxycephalosporanic acid]",Diameter of zone of inhibition,[1]; Quantity n 0.029,20 mm
same,Diameter of zone of inhibition,[1]; Quantity n 0.14,30 mm
same,Diameter of zone of inhibition,[1]; Quantity n 0.29,34 mm
same,Diameter of zone of inhibition,[2]; Quantity n 0.029,24 mm
same,Diameter of zone of inhibition,[2]; Quantity n 0.14,30 mm
same,Diameter of zone of inhibition,[2]; Quantity n 0.29,32 mm
same,Diameter of zone of inhibition,[3]; Quantity n 0.029,r
same,Diameter of zone of inhibition,[3]; Quantity n 0.14,16 mm
same,Diameter of zone of inhibition,[3]; Quantity n 0.29,22 mm
same,Diameter of zone of inhibition,[4]; Quantity n 0.029,r
same,Diameter of zone of inhibition,[4]; Quantity n 0.14,r
same,Diameter of zone of inhibition,[4]; Quantity n 0.29,r
same,Diameter of zone of inhibition,[5]; Quantity n 0.029,r
same,Diameter of zone of inhibition,[5]; Quantity n 0.14,r
same,Diameter of zone of inhibition,[5]; Quantity n 0.29,12 mm
same,Diameter of zone of inhibition,[6]; Quantity n 0.029,r
same,Diameter of zone of inhibition,[6]; Quantity n 0.14,r
same,Diameter of zone of inhibition,[6]; Quantity n 0.29,r
same,Diameter of zone of inhibition,[7]; Quantity n [μmol] 0.029,r
same,Diameter of zone of inhibition,[7]; Quantity n [μmol] 0.14,20 mm
same,Diameter of zone of inhibition,[7]; Quantity n [μmol] 0.29,24 mm
same,Diameter of zone of inhibition,[8]; Quantity n [mol] 0.029,r
same,Diameter of zone of inhibition,[8]; Quantity n [mol] 0.14,r
same,Diameter of zone of inhibition,[8]; Quantity n [mol] 0.29,r
same,Diameter of zone of inhibition,[9]; Quantity n 0.029,r
same,Diameter of zone of inhibition,[9]; Quantity n 0.14,r
same,Diameter of zone of inhibition,[9]; Quantity n 0.29,12 mm
same,Diameter of zone of inhibition,[10]; Quantity n 0.029,r
same,Diameter of zone of inhibition,[10]; Quantity n 0.14,10 mm
same,Diameter of zone of inhibition,[10]; Quantity n 0.29,18 mm
same,Diameter of zone of inhibition,[11]; Quantity n [mol] 0.029,r
same,Diameter of zone of inhibition,[11]; Quantity n [mol] 0.14,r
same,Diameter of zone of inhibition,[11]; Quantity n [mol] 0.29,r
same,Diameter of zone of inhibition,[12]; Quantity n 0.029,r
same,Diameter of zone of inhibition,[12]; Quantity n 0.14,r
same,Diameter of zone of inhibition,[12]; Quantity n 0.29,r
same,Diameter of zone of inhibition,[13]; Quantity n 0.029,r
same,Diameter of zone of inhibition,[13]; Quantity n 0.14,10 mm
same,Diameter of zone of inhibition,[13]; Quantity n 0.29,14 mm
same,Diameter of zone of inhibition,[14]; Quantity n [mol] 0.029,16 mm
same,Diameter of zone of inhibition,[14]; Quantity n [mol] 0.14,26 mm
same,Diameter of zone of inhibition,[14]; Quantity n [mol] 0.29,30 mm
same,Diameter of zone of inhibition,[15]; Quantity n 0.029,20 mm
same,Diameter of zone of inhibition,[15]; Quantity n 0.14,28 mm
same,Diameter of zone of inhibition,[15]; Quantity n 0.29,32 mm
same,Diameter of zone of inhibition,[16]; Quantity n 0.029,r
same,Diameter of zone of inhibition,[16]; Quantity n 0.14,14 mm
same,Diameter of zone of inhibition,[16]; Quantity n 0.29,18 mm
same,Diameter of zone of inhibition,[17]; Quantity n 0.029,r
same,Diameter of zone of inhibition,[17]; Quantity n 0.14,18 mm
same,Diameter of zone of inhibition,[17]; Quantity n 0.29,22 mm
same,Diameter of zone of inhibition,[18]; Quantity n 0.029,r
same,Diameter of zone of inhibition,[18]; Quantity n 0.14,8 mm
same,Diameter of zone of inhibition,[18]; Quantity n 0.29,14 mm
same,Diameter of zone of inhibition,[19]; Quantity n [mol] 0.029,r
same,Diameter of zone of inhibition,[19]; Quantity n [mol] 0.14,14 mm
same,Diameter of zone of inhibition,[19]; Quantity n [mol] 0.29,18 mm
same,Diameter of zone of inhibition,[20]; Quantity n 0.029,14 mm
same,Diameter of zone of inhibition,[20]; Quantity n 0.14,24 mm
same,Diameter of zone of inhibition,[20]; Quantity n 0.29,28 mm
